Data: patent publication US9095581B2, “Combinations of MEK inhibitors and Raf kinase inhibitors and uses thereof” (Ardea Biosciences, Inc., priority 2008, dated 2015)

Key:
[1] = system: Hep3B cells; assay: In vitro cell proliferation assay of Hep3B cell line, compound A with other anticancer agents (Example 6B); assay type: cell-based, human; details: agent in combination with compound A; 3, 4 or 6 days
Method: Cell culture/Growth Inhibition Assay: Human hepatocelluar carcinoma Hep3B cells were obtained from ATCC (Manassas, Va.). Hep3B cells were maintained in EMEM supplemented with 10% fetal bovine serum, penicillin (100 U/ml), and streptomycin (100 μg/ml). Cells were maintained at 37° C., 5% CO2, and 100% humidity. For cell proliferation experiments, cells were plated in white 96-well plates with clear bases at either 3000 cells/100 μl/well, 2000 cells/100 μl/well or 1000 cells/100 μl/well and treated as follows for 3 days, 4 days, or 6 days respectively. […] Following incubation for the indicated time at 37° C., ATP levels were determined using CellTiterGlo (Promega, Madison, Wis.) and reading luminescence values using a Lit Biosystems Analyst HT (Sunnyvale, Calif.). The ATP level for each dose combination was determined in triplicate using independent wells, and the experiment was performed several times. […] For comparison, the dose response for each single agent was also determined. The relative cell proliferation number was determined with the following formula: […]

[2] = system: Hep3B Hepatoma cells; assay: In vitro cell proliferation assay of Hep3B cell line (CellTiterGlo ATP levels); assay type: cell-based, human; details: sorafenib alone
Method: The effect of compound A in combination with sorafenib was examined in a cell line derived from a human hepatocellular carcinoma in a cell proliferation assay.
Cell culture/Growth Inhibition Assay: Human hepatocelluar carcinoma Hep3B cells were obtained from ATCC (Manassas, Va.). Hep3B cells were maintained in EMEM supplemented with 10% fetal bovine serum, penicillin (100 U/ml), and streptomycin (100 μg/ml). Cells were maintained at 37° C., 5% CO2, and 100% humidity. For cell proliferation experiments, cells were plated in white 96-well plates with clear bases at either 3000 cells/100 μl/well, 2000 cells/100 μl/well or 1000 cells/100 μl/well and treated as follows for 3 days, 4 days, or 6 days respectively. After 24 hr, cell media was removed and replaced with media containing combinations of compound A of formula I and sorafenib. Following incubation for the indicated time at 37° C., ATP levels were determined using CellTiterGlo (Promega, Madison, Wis.) and reading luminescence values using a LJL Biosystems Analyst FIT (Sunnyvale, Calif.). The ATP level for each dose combination was determined in triplicate using independent wells, and the experiment was performed several times. […] For comparison, the dose response for each single agent was also determined. The relative cell proliferation number was determined with the following formula: […]

[3] = system: human gastric adenocarcinoma cell line AGS; assay: In vitro cell proliferative activity of AGS cell line (CellTiterGlo ATP levels); assay type: cell-based
Method: The effect of compound A in combination with sorafenib was examined in a cell line derived from a human gastric adenocarcinoma, in a cell proliferation assay.
Cell culture/Growth Inhibition Assay: The human gastric adenocarcinoma cell line AGS was obtained from ATCC (Manassas, Va.). AGS cells were maintained in DMEM/F12 supplemented with 10% fetal bovine serum, penicillin (100 U/ml), and streptomycin (100 μg/ml). Cells were maintained at 37° C., 5% CO2, and 100% humidity. For cell proliferation experiments, cells were plated in white 96-well plates with clear bases at 3000 cells/100 μl/well. After 24 hr, cell media was removed and replaced with media containing combinations of 621119 and sorafenib. Following incubation for 48 hours at 37° C., ATP levels were determined using CellTiterGlo (Promega, Madison, Wis.) and reading luminescence values using a LJL Biosystems Analyst HT (Sunnyvale, Calif.). The ATP level for each dose combination was determined in triplicate using independent wells, and the experiment was performed several times. For synergy experiments, either 621119 or sorafenib was dosed at a fixed, subefficacious dose, while the second agent (sorafenib or 621119 respectively) was added across a range of doses. For comparison, the dose response for each single agent was also determined. The relative cell proliferation number was determined with the following formula: […]

Structure (SMILES)	synergy with compound A in cell proliferation [1]	also measured
Nc1ccn([C@@H]2O[C@H](CO)[C@@H](O)C2(F)F)c(=O)n1 [Gemcitabine]	no synergy	
Cc1ccc(NC(=O)c2ccc(CN3CCN(C)CC3)cc2)cc1Nc1nccc(-c2cccnc2)n1 [Imatinib]	no synergy	
CS(=O)(=O)CCNCc1ccc(-c2ccc3ncnc(Nc4ccc(OCc5cccc(F)c5)c(Cl)c4)c3c2)o1 [Lapatinib]	no synergy	
CCCCCCCCCCCCCCCCCCOP(=O)([O-])OC1CC[N+](C)(C)CC1 [Perifosine]	no synergy	
O=C(CCCCCCC(=O)Nc1ccccc1)NO [Vorinostat]	no synergy	
CNC(=O)c1cc(Oc2ccc(NC(=O)Nc3ccc(Cl)c(C(F)(F)F)c3)cc2)ccn1 [sorafenib, 4-[4-[[4-chloro-3-(trifluoromethyl)phenyl]carbamoylamino]phenoxy]-N-methyl-pyridine-2-carboxamide]		inhibition of cell proliferation ([2]; 2 μM and lower, after 4 days (FIG. 8C)): little or no inhibition; inhibition of cell proliferation ([2]; 5 μM and lower, after 3 days (FIG. 8A)): little activity; inhibition of cell proliferation (cell number relative to vehicle) ([3]; sorafenib alone at 5 uM, after 48 hours (FIG. 9B)): little activity; inhibition of cell proliferation (relative cell number) ([3]; sorafenib alone, 5 uM and lower, after 48 hours (FIG. 9A)): little activity
